Measured values taken from patent US4960787A, “Certain pyrrolyl-substituted hydroxamic acid derivatives” (Ciba-Geigy Corporation, priority 1989, dated 1990).

Assays:
[1] = tested on: 5-lipoxygenase; test: ex vivo inhibition of A-23187-stimulated LTB4 formation in whole blood after oral administration; settings: dose of about 3 mg/kg p.o. to the dog
Description: Furthermore, the inhibition of 5-lipoxygenase is determined after oral or i.v. administration to rats or dogs by measuring ex vivo in whole blood the decrease of A-23187-stimulated LTB4 formation as compared to non-treated control animals.
(§1) Illustrative of the invention, the compound of example 1a, (E)-3-(1-cycloheptyl-1H-pyrrol-3-yl)-N-hydroxy-N-methyl-2-propenamide, inhibits the formation of 5-HETE [(5S)-5-hydroxy-6,8,11,14-eicosatetraenoic acid] and leukotriene B4 (LTB4, 5,12-dihydroxy-6,8,10,14-eicosatetraenoic acid) in A-23187-stimulated guinea pig polymorphonuclear leukocytes, e.g. at an IC50 of about 0.1 micromolar (1×10^-7 M).

[2] = target: T1, 5-lipoxygenase (Cavia porcellus, UniProt A0A286X958); test: inhibition of 5-HETE and LTB4 synthesis in A-23187-stimulated guinea pig polymorphonuclear leukocytes; type: cell-based; settings: also printed as 1×10^-7 M, read-out: IC50, inhibition of the formation of 5-HETE and leukotriene B4 (LTB4)
T1 construct: A-23187-stimulated guinea pig polymorphonuclear leukocytes; endogenous in cells; host or cells: guinea pig polymorphonuclear leukocytes
T1 sequence (A0A286X958 1-674): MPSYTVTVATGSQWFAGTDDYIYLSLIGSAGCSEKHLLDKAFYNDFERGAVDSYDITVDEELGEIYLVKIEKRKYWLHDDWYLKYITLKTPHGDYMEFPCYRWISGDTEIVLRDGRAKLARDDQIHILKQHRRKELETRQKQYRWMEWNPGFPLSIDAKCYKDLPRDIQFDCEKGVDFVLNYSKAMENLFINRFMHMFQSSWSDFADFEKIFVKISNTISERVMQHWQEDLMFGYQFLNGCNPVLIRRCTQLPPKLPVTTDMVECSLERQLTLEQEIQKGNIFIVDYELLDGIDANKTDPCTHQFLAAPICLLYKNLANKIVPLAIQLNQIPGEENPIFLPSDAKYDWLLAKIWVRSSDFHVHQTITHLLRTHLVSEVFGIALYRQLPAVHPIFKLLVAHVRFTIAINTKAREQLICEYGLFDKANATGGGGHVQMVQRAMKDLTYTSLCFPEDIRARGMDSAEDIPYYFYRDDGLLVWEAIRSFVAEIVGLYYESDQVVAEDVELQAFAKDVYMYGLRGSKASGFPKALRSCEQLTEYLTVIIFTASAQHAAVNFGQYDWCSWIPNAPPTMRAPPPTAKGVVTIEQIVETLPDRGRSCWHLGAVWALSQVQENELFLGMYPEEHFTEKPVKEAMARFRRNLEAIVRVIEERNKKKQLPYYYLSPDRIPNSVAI
Description: 5-Lipoxygenase inhibition is determined e.g. by measuring the percent inhibition of the synthesis of 5-HETE [(5S)-5-hydroxy-6,8,11,14-eicosa-tetraenoic acid] and leukotriene B4 (LTB4, 5,12-dihydroxy-6,8,10,14-eicosatetraenoic acid) in A-23187-stimulated guinea pig polymorphonuclear leukocytes, essentially according to radiometric thin-layer chromatographic assays described by Walker and Dawson (J. Pharm. Pharmacol. 31: 778, 1979) and Jakschik and Lee (Nature 287: 51, 1980) used to measure the formation of 5-HETE and LTB4 -like products from ^14 C-arachidonic acid. IC50 values are determined graphically as the concentration of test compound at which the synthesis of 5-HETE and LTB4 -like products is reduced to 50% of their respective control values.
as §1

[3] = tested on: rat pleurisy model of inflammation; test: carrageenin-induced pleurisy model, exudate volume; type: in vivo; settings: 10 mg/kg p.o. for two days at -1, 6, 24 and 45 hours relative to carrageenin injection, 48 hours after injection

Question: Which “inhibition of LTB4 formation as determined ex vivo” value [1] does the source give for CN(O)C(=O)/C=C/c1ccn(C2CCCCCC2)c1 [example 1a, (E)-3-(1-cycloheptyl-1H-pyrrol-3-yl)-N-hydroxy-N-methyl-2-propenamide] here?
Answer: Its value is 50%.

Question: And the IC50 [2]?
Answer: The IC50 was ~100 nM.

Question: And the “inhibition of exudate volume” value [3]?
Answer: Its value is “causes inhibition of exudate volume”.
